In patent US12516051B1, “Small molecule degraders and fluorescent probes of PXR” (St. Jude Children's Research Hospital, Inc., priority 2024, dated 2026):
Read-outs that look alike come from different tables or passages of the source.

System: SNU-C4 HiBiT-PXR KI cells
Test: Cytotoxicity, CellTiter-Glo Luminescent Cell Viability Assay
Assay type: cell-based
Method: An Echo 655T Acoustic Liquid Handler was used to dispense 75 nL/well of DMSO or PROTAC dilution into white tissue culture-treated 384-well plates. For 24 h cytotoxicity, 25 μL assay media containing 1×10^4 cells was added to each well to match the conditions for the degradation assays. For 72 h cytotoxicity, 25 μL RPMI with 10% FBS containing 2.5×10^3 cells was added to each well to match normal growth conditions. […] After 24 h or 72 h, the CellTiter-Glo Luminescent Cell Viability Assay (Promega, cat. #G7572) and an EnVision microplate reader were used to assess cytotoxicity. DMSO wells with cells served as positive controls, and wells without cells served as negative controls. The percent cell viability for each well was calculated using equation 5,

[1] = read-out: 24 h CC50, Table 3, 24 h treatment
[2] = read-out: 72 h CC50, Table 3, 72 h treatment
[3] = read-out: 24 h CC50, Table 4, 24 h treatment
[4] = read-out: 72 h CC50, Table 4, 72 h treatment

SMILES	CC50 [1] [µM]	CC50 [2] [µM]	CC50 [3] [µM]	CC50 [4] [µM]
COc1cc(OCC(=O)NCCOCCOCCOCCOCC(=O)N[C@H](C(=O)N2C[C@H](O)C[C@H]2C(=O)NCc2ccc(-c3scnc3C)cc2)C(C)(C)C)c(C)cc1-n1nnc(S(=O)(=O)c2ccc(C(C)(C)C)cc2)c1C [Compound 30, (2S,4R)-1-((S)-2-(TERT-BUTYL)-20-(4-(4-((4-(TERT-BUTYL)PHENYL)SULFONYL)-5-METHYL-1H-1,2,3-TRIAZOL-1-YL)-5-METHOXY-2-METHYLPHENOXY)-4,19-DIOXO-6,9,12,15-TETRAOXA-3,18-DIAZAICOSANOYL)-4-HYDROXY-N-(4-(4-METHYLTHIAZOL-5-YL)BENZYL)PYRROLIDINE-2-CARBOXAMIDE]	> 30	> 30	–	–
COc1cc(OCCOCCOCCOCCOCCOCCC(=O)N[C@H](C(=O)N2C[C@H](O)C[C@H]2C(=O)NCc2ccc(-c3scnc3C)cc2)C(C)(C)C)c(C)cc1-n1nnc(S(=O)(=O)c2ccc(C(C)(C)C)cc2)c1C [Compound 31, (2S,4R)-1-((S)-20-(TERT-BUTYL)-1-(4-(4-((4-(TERT-BUTYL)PHENYL)SULFONYL)-5-METHYL-1H-1,2,3-TRIAZOL-1-YL)-5-METHOXY-2-METHYLPHENOXY)-18-OXO-3,6,9,12,15-PENTAOXA-19-AZAHENICOSAN-21-OYL)-4-HYDROXY-N-(4-(4-METHYLTHIAZOL-5-YL)BENZYL)PYRROLIDINE-2-CARBOXAMIDE]	> 30	> 30	–	–
COc1cc(OCCCCCCOCCCCCOCCCCCC(=O)N[C@H](C(=O)N2C[C@H](O)C[C@H]2C(=O)NCc2ccc(-c3scnc3C)cc2)C(C)(C)C)c(C)cc1-n1nnc(S(=O)(=O)c2ccc(C(C)(C)C)cc2)c1C [Compound 32, (2S,4R)-1-((S)-2-(6-((5-((6-(4-(4-((4-(tert-Butyl)phenyl)sulfonyl)-5-methyl-1H-1,2,3-triazol-1-yl)-5-methoxy-2-methylphenoxy)hexyl)oxy)pentyl)oxy)hexanamido)-3,3-dimethylbutanoyl)-4-hydroxy-N-(4-(4-methylthiazol-5-yl)benzyl)pyrrolidine-2-carboxamide]	> 30	> 30	–	–
COc1cc(OCCCCCCOCCOCCOCCCCCC(=O)N[C@H](C(=O)N2C[C@H](O)C[C@H]2C(=O)NCc2ccc(-c3scnc3C)cc2)C(C)(C)C)c(C)cc1-n1nnc(S(=O)(=O)c2ccc(C(C)(C)C)cc2)c1C [Compound 33, (2S,4R)-1-((S)-2-(tert-Butyl)-22-(4-(4-((4-(tert-butyl)phenyl)sulfonyl)-5-methyl-1H-1,2,3-triazol-1-yl)-5-methoxy-2-methylphenoxy)-4-oxo-10,13,16-trioxa-3-azadocosanoyl)-4-hydroxy-N-(4-(4-methylthiazol-5-yl)benzyl)pyrrolidine-2-carboxamide]	> 30	> 30	–	–
COc1cc(OCCCCCCOCCOCCOCCOCCOCCOCC(=O)N[C@H](C(=O)N2C[C@H](O)C[C@H]2C(=O)NCc2ccc(-c3scnc3C)cc2)C(C)(C)C)c(C)cc1-n1nnc(S(=O)(=O)c2ccc(C(C)(C)C)cc2)c1C [Compound 34, (2S,4R)-1-((S)-2-(tert-Butyl)-27-(4-(4-((4-(tert-butyl)phenyl)sulfonyl)-5-methyl-1H-1,2,3-triazol-1-yl)-5-methoxy-2-methylphenoxy)-4-oxo-6,9,12,15,18,21-hexaoxa-3-azaheptacosanoyl)-4-hydroxy-N-(4-(4-methylthiazol-5-yl)benzyl)pyrrolidine-2-carboxamide]	> 30	> 30	–	–
CCCCOc1ccc(C(C)(C)C)cc1NC(=O)c1nnn(-c2cc(C)c(OCCCCCCOCCOCC(=O)N[C@H](C(=O)N3C[C@H](O)C[C@H]3C(=O)NCc3ccc(-c4scnc4C)cc3)C(C)(C)C)cc2OC)c1C [Compound 35, N-(2-Butoxy-5-(tert-butyl)phenyl)-1-(4-((6-(2-(2-(((S)-1-((2S,4R)-4-hydroxy-2-((4-(4-methylthiazol-5-yl)benzyl)carbamoyl)pyrrolidin-1-yl)-3,3-dimethyl-1-oxobutan-2-yl)amino)-2-oxoethoxy)ethoxy)hexyl)oxy)-2-methoxy-5-methylphenyl)-5-methyl-1H-1,2,3-triazole-4-carboxamide]	–	–	> 30	> 30
CCC[C@H](CC)Oc1ccc(C(C)(C)C)cc1NC(=O)c1nnn(-c2cc(C)c(OCCCCCCOCCOCC(=O)N[C@H](C(=O)N3C[C@H](O)C[C@H]3C(=O)NCc3ccc(-c4scnc4C)cc3)C(C)(C)C)cc2OC)c1C [Compound 36]	–	–	> 30	> 30
CCC[C@H](CC)Oc1ccc(C(C)(C)C)cc1NC(=O)c1nnn(-c2cc(OC)c(OCCCCCCOCCOCC(=O)N[C@H](C(=O)N3C[C@H](O)C[C@H]3C(=O)NCc3ccc(-c4scnc4C)cc3)C(C)(C)C)cc2OC)c1C [Compound 37, N-(5-(TERT-BUTYL)-2-(((S)-HEXAN-3-YL)OXY)PHENYL)-1-(4-((6-(2-(2-(((S)-1-((2S,4R)-4-HYDROXY-2-((4-(4 METHYLTHIAZOL-5-YL)BENZYL)CARBAMOYL)PYRROLIDIN-1-YL)-3,3-DIMETHYL-1-OXOBUTAN-2-YL)AMINO)-2 OXOETHOXY)ETHOXY)HEXYL)OXY)-2,5-DIMETHOXYPHENYL)-5-METHYL-1H-1,2,3-TRIAZOLE-4-CARBOXAMIDE]	–	–	> 30	> 30
CCC[C@H](CC)Oc1ccc(C(=O)OC)cc1NC(=O)c1nnn(-c2cc(OC)c(OCCCCCCOCCOCC(=O)N[C@H](C(=O)N3C[C@H](O)C[C@H]3C(=O)NCc3ccc(-c4scnc4C)cc3)C(C)(C)C)cc2OC)c1C [Compound 38, METHYL 4-(((S)-HEXAN-3-YL)OXY)-3-(1-(4-((6-(2-(2-(((S)-1-((2S,4R)-4-HYDROXY-2-((4-(4-METHYLTHIAZOL-5-YL)BENZYL)CARBAMOYL)PYRROLIDIN-1-YL)-3,3-DIMETHYL-1-OXOBUTAN-2-YL)AMINO)-2-OXOETHOXY)ETHOXY)HEXYL)OXY)-2,5-DIMETHOXYPHENYL)-5-METHYL-1H-1,2,3-TRIAZOLE-4-CARBOXAMIDO)BENZOATE]	–	–	> 30	> 30
